Data set [1] in a line: Half life in rat at 1 mg/kg, iv and 2 mg/kg, po. It counts as ADME, organism-based. Conditions: in vivo.
Data set [2] can be described thus: Oral bioavailability in rat at 2 mg/kg. The class given is ADME, organism-based. Particulars: in vivo.
The nature of data set [3]: Oral bioavailability in Sprauge-Dawley rat. The class given is ADME, organism-based. Conditions: Sprague-Dawley, in vivo.
The nature of data set [4]: AUCt/dose in Sprauge-Dawley rat. The class given is ADME. Particulars: in vivo.
A short description of data set [5]: Oral bioavailability in dog at 10 mg/kg. The class given is ADME, organism-based, Canis lupus familiaris. Particulars: in vivo.
A short description of data set [6]: Drug level in SRH rat plasma at 0.3 mg/kg , po measured after 4 hrs. It counts as ADME, organism-based.
The nature of data set [7]: Half life in monkey at 0.5 mg/kg, iv and 2 mg/kg, po. The class given is ADME, organism-based, Macaca mulatta. Particulars: rhesus monkey, in vivo.
Data set [8] is described as follows: Clearance in dog at 1 mg/kg, iv and 10 mg/kg, po. The class given is ADME, organism-based, Canis lupus familiaris. Particulars: in vivo.
A short description of data set [9]: Oral bioavailability in monkey at 2 mg/kg, po. It counts as ADME, organism-based, Macaca mulatta. Conditions: rhesus monkey, in vivo.
The nature of data set [10]: Half life in dog at 1 mg/kg, iv and 10 mg/kg, po. The class given is ADME, organism-based, Canis lupus familiaris. Conditions: in vivo.
The nature of data set [11]: Clearance in monkey at 0.5 mg/kg, iv and 2 mg/kg, po. It counts as ADME, organism-based, Macaca mulatta. Particulars: rhesus monkey, in vivo.
Data set [12] can be described thus: Half life in rat at 2 mg/kg, po. The class given is ADME, organism-based. Conditions: in vivo.
Data set [13] is described as follows: Drug level in SRH rat plasma at 3 mg/kg , po measured after 4 hrs. The class given is ADME, organism-based.
Data set [14] can be described thus: Drug level in SRH rat plasma a 1 mg/kg , po measured after 4 hrs. The class given is ADME, organism-based.
Data set [15] in a line: Clearance in rat at 1 mg/kg, iv and 2 mg/kg, po. It counts as ADME, organism-based. Particulars: in vivo.
Data set [16] is described as follows: Total Plasma clearance in Sprauge-Dawley rat. Particulars: Sprague-Dawley. It counts as ADME.
Data set [17] is described as follows: Half life in Sprauge-Dawley rat. It counts as ADME. Particulars: Sprague-Dawley, in vivo.

On to `COC(=O)N(C)c1c(N)nc(-c2nc(Cc3ccccc3F)n3ccccc23)nc1N`, for which the half-life in data set [1] was 0.9 h. In data set [2], this compound gave a bioavailability of 15%.
`COC(=O)N(C)c1c(N)nc(-n2nc(Cc3ccccc3F)c3ccccc32)nc1N` had a half-life in data set [1] of 0.9 h. In [2], this compound had a bioavailability of 32%.
For the compound `COC(=O)Nc1c(N)nc(-n2nc(Cc3c(F)ccc(F)c3F)c3cc(Cl)ccc32)nc1N`, in [3], the bioavailability stood at 37%. The same compound gave an AUCt/dose in data set [4] of 25.2 µM·kg·h/mg.
As to `CC1(C)C(=O)Nc2nc(-n3nc(CCC(F)(F)F)c4cc(Cl)ccc43)nc(N)c21`, the bioavailability was found to be 21% in data set [5], 63% in [9] and 80% in data set [2]. For the same compound, the concentration at 4 h in data set [6] is 36 nM; in data set [13], 392 nM; in data set [14], 145 nM. Further, the results for the half-life in [7], in [10] and in data set [12] were 1.4 h, 1.3 h and 2.6 h, respectively. Further, the clearance in [8] worked out at 39 mL/min/kg; in data set [11], 34 mL/min/kg; in data set [15], 29 mL/min/kg.
In turn, `COC(=O)N(C)c1c(N)nc(-c2nc(Cc3ccccc3F)n3ncccc23)nc1N` had a half-life in data set [1] of 0.6 h. The compound further displayed a bioavailability in data set [2] of 4%.
`COC(=O)N(C)c1c(N)nc(-n2nc(Cc3c(F)ccc(F)c3F)c3cc(Cl)ccc32)nc1N`: the clearance in [16] is 0.9 mL/min/kg. Moreover, the bioavailability in [3] was 51%. Further, the AUCt/dose in [4] turned out to be 18 µM·kg·h/mg. Also, the half-life in data set [17] is 3.6 h.
Turning to `COC(=O)N(C)c1c(N)nc(-n2nc(Cc3ccccc3F)c3cc(F)ccc32)nc1N`, the clearance in [16] was determined as 1.4 mL/min/kg. The compound also gave a bioavailability in data set [3] of 22%. In [4], this compound gave an AUCt/dose of 4.6 µM·kg·h/mg. In [17], this compound had a half-life of 1.5 h.
The matching figures for `COC(=O)N(C)c1c(N)nc(-n2nc(Cc3c(F)ccc(F)c3F)c3ccccc32)nc1N`: 1.6 mL/min/kg, 68%, 15.3 µM·kg·h/mg and 2.2 h.

The values are drawn from ChEMBL document CHEMBL4665837, “Soluble guanylate cyclase stimulators for the treatment of hypertension: Discovery of MK-2947” (Bioorg Med Chem Lett, 2020).
